The target of one data set is Cytochrome P450 2C19 (Homo sapiens, UniProt P33261). In words: Cytochrome panel assay with activity outcomes. Panel member name: p450-cyp2c19 Compounds with AC50 equal or less than 10 uM are considered active. The class given is functional.
The next data set has as its target Cytochrome P450 2C9 (Homo sapiens, UniProt P11712).
A short description of data set [1]: Trypanosoma cruzi growth suppression in host cells – NIH3T3 host cells, beta-gal luminescence, confirmation (AID 2044).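 Further: intracellular parasites grown in NIH/3T3 mouse fibroblasts as host cells; luminescent beta-galactosidase reporter signal from transgenic T. cruzi replicating inside host cells; inhibitors lower the luminescence signal.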 The class given is functional, cell-based.
Data set [2] in a line: NIH3T3 cell viability loss – ATP luminescence, mouse fibroblasts, counter-screen, dose response (AID 2010).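 Further: cells exposed to compound for about 90 hours before reading.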 The class given is functional, cell-based. The following applies: NIH3T3.
For data set [3], the system named is Streptococcus sp. 'group A'. Put plainly: Streptococcus pyogenes SK(-)GAS viability under kanamycin – luminescence, BacTiterGlo, confirmation, counter-screen for streptokinase expression inhibitor project, dose response (AID 1900). The class given is functional, organism-based.
A further data set deals with T1, Streptokinase A (Streptococcus pyogenes serotype M1, UniProt P10520).
T1 sequence (P10520 whole entry): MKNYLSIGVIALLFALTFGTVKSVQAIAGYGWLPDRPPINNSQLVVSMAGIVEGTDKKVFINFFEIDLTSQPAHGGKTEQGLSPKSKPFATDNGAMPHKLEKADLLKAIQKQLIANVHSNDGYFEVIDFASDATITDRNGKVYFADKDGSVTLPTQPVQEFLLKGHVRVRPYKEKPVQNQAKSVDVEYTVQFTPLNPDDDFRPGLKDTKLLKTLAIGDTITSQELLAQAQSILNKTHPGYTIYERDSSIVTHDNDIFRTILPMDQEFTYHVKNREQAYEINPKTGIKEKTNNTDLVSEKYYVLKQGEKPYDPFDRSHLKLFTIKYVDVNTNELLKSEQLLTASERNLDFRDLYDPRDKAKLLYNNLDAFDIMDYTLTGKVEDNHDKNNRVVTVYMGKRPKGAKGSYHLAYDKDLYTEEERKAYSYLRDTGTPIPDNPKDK
In words: viability-normalized secreted streptokinase activity reduction – plasminogen activation absorbance, OD405, dose response (AID 1914).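 Further: secreted streptokinase activity via plasminogen activation per viability signal from cell pellet.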 The class given is functional, Streptococcus pyogenes M1 GAS.

A further data set concerns Streptococcus. In words: GAS UMAA2166 growth inhibition – luminescence, BacTiterGlo, counter-screen for streptokinase expression inhibitor project, dose response (AID 1915).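 Further: potency for reduction of bacterial viability or growth.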 The class given is functional, organism-based.
Data set [4] has as its target T2, Corticotropin-releasing factor receptor 2/Corticotropin-releasing factor-binding protein (Homo sapiens, UniProt P24387+Q13324).
T2 sequence (Q13324 whole entry): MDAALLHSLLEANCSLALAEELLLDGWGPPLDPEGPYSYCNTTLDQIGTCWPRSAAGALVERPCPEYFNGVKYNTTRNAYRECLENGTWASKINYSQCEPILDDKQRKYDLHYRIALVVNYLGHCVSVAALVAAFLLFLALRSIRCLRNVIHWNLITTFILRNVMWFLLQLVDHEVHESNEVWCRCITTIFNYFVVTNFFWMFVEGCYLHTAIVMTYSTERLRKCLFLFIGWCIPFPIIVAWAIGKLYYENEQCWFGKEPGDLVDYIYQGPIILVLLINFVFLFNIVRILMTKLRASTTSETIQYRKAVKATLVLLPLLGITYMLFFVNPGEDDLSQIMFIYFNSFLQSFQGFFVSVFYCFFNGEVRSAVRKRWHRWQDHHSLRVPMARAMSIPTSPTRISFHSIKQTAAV
T2 sequence (P24387 whole entry): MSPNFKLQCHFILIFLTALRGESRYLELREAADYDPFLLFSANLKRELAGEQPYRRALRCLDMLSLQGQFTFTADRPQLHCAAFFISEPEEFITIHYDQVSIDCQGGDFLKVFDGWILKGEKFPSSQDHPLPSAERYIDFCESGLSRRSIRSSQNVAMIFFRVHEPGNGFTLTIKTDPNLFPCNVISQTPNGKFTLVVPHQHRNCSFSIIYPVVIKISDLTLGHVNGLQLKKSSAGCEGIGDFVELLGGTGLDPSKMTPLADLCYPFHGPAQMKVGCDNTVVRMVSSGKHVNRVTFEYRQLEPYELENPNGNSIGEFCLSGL
Put plainly: activators of CRF receptor 2 with binding protein – uHTS hits, confirmation (AID 602473). The following applies: read-out: EC50_Mean. The class given is functional.

A further data set has as its target Cytochrome P450 3A4 (Homo sapiens, UniProt P08684).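 Further: CYP3A4 tested as one member of a cytochrome P450 panel screen.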

The source made the active and inactive calls.

Chain of Cytochrome P450 2C9 (P11712 whole entry): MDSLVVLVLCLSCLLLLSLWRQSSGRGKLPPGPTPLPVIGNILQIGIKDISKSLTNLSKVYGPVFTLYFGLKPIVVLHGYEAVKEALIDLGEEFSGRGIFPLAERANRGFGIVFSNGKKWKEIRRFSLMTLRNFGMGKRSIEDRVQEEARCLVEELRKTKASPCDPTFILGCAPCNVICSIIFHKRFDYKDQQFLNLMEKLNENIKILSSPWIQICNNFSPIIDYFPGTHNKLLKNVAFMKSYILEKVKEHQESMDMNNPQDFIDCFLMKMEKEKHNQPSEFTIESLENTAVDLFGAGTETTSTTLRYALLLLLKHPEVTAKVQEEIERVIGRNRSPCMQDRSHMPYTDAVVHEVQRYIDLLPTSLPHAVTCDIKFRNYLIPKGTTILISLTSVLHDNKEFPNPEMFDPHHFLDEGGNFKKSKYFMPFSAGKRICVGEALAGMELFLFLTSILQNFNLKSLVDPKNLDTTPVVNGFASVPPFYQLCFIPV
Chain of Cytochrome P450 3A4 (P08684 whole entry): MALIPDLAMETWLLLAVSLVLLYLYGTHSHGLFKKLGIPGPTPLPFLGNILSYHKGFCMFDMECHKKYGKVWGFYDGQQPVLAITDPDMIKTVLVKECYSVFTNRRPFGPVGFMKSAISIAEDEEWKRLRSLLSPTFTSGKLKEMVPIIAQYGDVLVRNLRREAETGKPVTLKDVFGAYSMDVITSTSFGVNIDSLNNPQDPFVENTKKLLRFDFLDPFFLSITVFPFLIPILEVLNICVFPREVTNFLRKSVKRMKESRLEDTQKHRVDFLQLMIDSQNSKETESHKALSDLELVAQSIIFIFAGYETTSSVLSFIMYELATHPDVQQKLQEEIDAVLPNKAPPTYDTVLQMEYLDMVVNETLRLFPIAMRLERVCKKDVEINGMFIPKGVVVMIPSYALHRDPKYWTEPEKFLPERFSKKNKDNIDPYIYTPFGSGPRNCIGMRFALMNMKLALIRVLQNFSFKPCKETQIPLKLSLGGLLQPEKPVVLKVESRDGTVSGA
Chain of Cytochrome P450 2C19 (P33261 whole entry): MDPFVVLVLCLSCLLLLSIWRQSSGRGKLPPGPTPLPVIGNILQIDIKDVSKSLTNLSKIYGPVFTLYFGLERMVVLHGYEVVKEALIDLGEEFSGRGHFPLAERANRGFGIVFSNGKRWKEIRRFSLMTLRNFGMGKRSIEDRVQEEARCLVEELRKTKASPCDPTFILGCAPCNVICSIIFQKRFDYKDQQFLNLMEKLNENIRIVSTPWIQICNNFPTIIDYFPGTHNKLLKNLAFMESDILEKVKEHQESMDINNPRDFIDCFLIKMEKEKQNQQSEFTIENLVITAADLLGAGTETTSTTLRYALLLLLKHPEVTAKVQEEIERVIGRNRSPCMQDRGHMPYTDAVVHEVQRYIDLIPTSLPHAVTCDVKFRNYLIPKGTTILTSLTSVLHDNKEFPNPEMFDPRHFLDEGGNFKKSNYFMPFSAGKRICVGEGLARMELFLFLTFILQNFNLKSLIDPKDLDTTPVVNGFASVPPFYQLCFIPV

As to `O=C(O)CC[C@@H](NC(=O)c1ccccc1C(=O)O)C(=O)O`, the AC50 at Cytochrome P450 2C19 (read-out: AC50) was 0.0251 µM (inconclusive).
Take `CN(C)c1ccc(-c2cncnc2NCCc2cnc[nH]2)cc1`: the AC50 at Cytochrome P450 2C9 was 0.501 µM (inconclusive).
As to `CCC1CCCCN1c1nc(-c2ccncc2)nc2ccccc12` (centres undefined), the EC50 in data set [1] was 0.521 µM (active); in data set [2], 6.4 µM (active).
`COc1ccc(Nc2nnc(-c3ccc(O)cc3)c3ccccc23)cc1`: the EC50 in [1] is 3.48 µM (active); in [2], > 60 µM (not active).
Turning to `CCN1CCCc2cc(CN(CCN3CCOCC3)C(S)=Nc3ccc(OC)c(Cl)c3)ccc21`, the results for the EC50 in data set [1] and in [2] were 1.63 µM (active) and > 60 µM (not active), respectively.
For `O=C(NNc1nc(-c2ccc(F)cc2)cs1)c1ccccc1`, the EC50 was 0.831 µM (active) in [3], > 150 µM (not active) at Streptokinase A and > 150 µM (not active) with Streptococcus.
`CCNc1nc(NCC)nc(-n2nc(C)cc2C)n1`: the EC50 in [3] is 17.2 µM (active); at Streptokinase A it was > 150 µM (not active); in the data set on Streptococcus, > 150 µM (not active).
In the case of `Cn1cccc1CC(=O)NNC(=S)NC(=O)c1ccccc1Br`, the EC50 in data set [3] is 5.95 µM (active); on Streptokinase A it was > 150 µM (not active); in the data set with Streptococcus it was 137 µM (active).
Turning to `COc1ccc(C(CNC(=O)c2oc3ccc(Br)cc3c2C)N2CCCCC2)cc1` (centres undefined), the EC50 is 2.37 µM (active) in data set [1] and > 60 µM (not active) in [2].
For `CCCCC(=O)NC(=S)NNC(=O)CCc1ccccc1`, the EC50 in data set [3] is 3.35 µM (active); with Streptococcus it was 8.5 µM (active); in data set [4], 4.32 µM (active).
With `CCCCNC(=O)NS(=O)(=O)c1ccc(C(=O)OC(C)C)o1`, the AC50 on Cytochrome P450 2C19 (read-out: AC50) was 39.8 µM (inconclusive).
As for `CC(C)NC(=O)N1CC2(CCN(C(=O)c3ccncc3)CC2)C1`, on Cytochrome P450 3A4, the AC50 is 0.0794 µM (inconclusive).
Consider `Clc1ccc(-c2[nH]nc3c2CCC3)c(Cl)c1`, for which the figures for the EC50 (in [3]; in the data set on Streptococcus) were 16.8 µM (active) and > 150 µM (not active), respectively.
As to `Clc1ccc(-c2n[nH]c3c2CCC3)c(Cl)c1`, the EC50 on Streptokinase A is > 150 µM (not active).
On to `Cc1c(C)c(C)c2[nH]c(-c3ccc4c(c3)OCO4)nc2c1C`, for which the EC50 was 1.45 µM (active) in data set [1] and > 30 µM (not active) in [2].
Consider `C[C@]12C=CC(=O)C=C1CC[C@@H]1[C@H]3C[C@@H](O)[C@](O)(C(=O)CO)[C@@]3(C)C[C@H](O)[C@]12F`, for which the AC50 at Cytochrome P450 2C9 was 15.8 µM (inconclusive).
As to `CCC/C=C(\CCC)C(NS(=O)(=O)c1ccc(C(F)(F)F)cc1)c1ccc(C(=O)OC)cc1` (centres undefined), the AC50 on Cytochrome P450 3A4 was 1 µM (inconclusive).
On to `CCOC(=O)c1nn(-c2ccccc2Cl)c(=O)cc1OCC(=O)Nc1cccc(OC)c1`, for which the EC50 is 31.2 µM (active) in data set [3], > 150 µM (not active) at Streptokinase A and > 150 µM (not active) in the data set with Streptococcus.
As to `COc1ccc(C(=O)N2CCC3(CCCN(c4ccccn4)C3)CC2)cc1`, the AC50 at Cytochrome P450 2C19 (read-out: AC50) was 25.1 µM (inconclusive).
As for `Cc1ccccc1C(=O)Nc1ccc(C(=O)NNC(=O)CCCOc2ccc(Cl)cc2Cl)cc1`, the AC50 on Cytochrome P450 2C19 (read-out: AC50) is 17.8 µM (inconclusive).
On to `COC(=O)[C@@]1(Cc2ccc(OC)cc2)[C@H]2c3cc(C(=O)N4CCCC4)n(CCn4cc([N+](=O)[O-])nc4C)c3C[C@H]2CN1C(=O)c1ccccc1`, for which the half-maximal activity concentration (AC50) at Cytochrome P450 2C9 was 31.6 µM (inconclusive).
Take `CCOc1ccc(NS(=O)(=O)c2ccc(C(=O)N3CC(C)OC(C)C3)cc2)cc1` (centres undefined): in [4], the EC50 was 7.94 µM (active).
For `CC(=O)c1cccc(NC(=O)c2csc(-n3nc(C)cc3C(F)(F)F)n2)c1`, the figures for the AC50 at Cytochrome P450 2C19 (read-out: AC50) and on Cytochrome P450 2C9 were 7.94 µM (inconclusive) and 1 µM (inconclusive), respectively.
For the compound `CCOc1cc(CNc2ccc3c(c2)CCC3)ccc1OC`, the EC50 (in data set [3]; on Streptokinase A; with Streptococcus) was > 150 µM (not active) each time.
`CCCCNC1=N/C(=C\c2ccco2)C(=O)N1c1ccccc1`: the AC50 at Cytochrome P450 2C19 (read-out: AC50) is 39.8 µM (inconclusive); at Cytochrome P450 2C9, 4.47 µM (inconclusive).
On to `COC(=O)C1(C)C=C2C(=C(c3ccccc3)C(=O)C2C)CN1` (centres undefined), for which the AC50 on Cytochrome P450 2C19 (read-out: AC50) was 39.8 µM (inconclusive).
Consider `CCCc1nnc(SCC(=O)N2CCCCC2)n1CC1CCCO1` (centres undefined), for which the AC50 on Cytochrome P450 2C19 (read-out: AC50) was 17.8 µM (inconclusive).
On to `CC(C)c1csc(CN2CCC(CO)(Cc3cccc(F)c3)CC2)n1`, for which the EC50 in data set [1] is 1.09 µM (active); in [2], > 60 µM (not active).
For `CCN(CC)c1nc(-c2ccccc2)ncc1S(=O)(=O)c1ccc(C)cc1` the same measures were 2.65 µM (active) and > 60 µM (not active).
As to `COc1ccc(-c2nc3cnc(Nc4cccc(OC)c4)nc3n(C[C@H]3CCCO3)c2=O)cc1`, the AC50 on Cytochrome P450 3A4 is 5.01 µM (inconclusive).
Consider `NC(=O)c1csc(-c2ccc(CO)o2)n1`, for which the AC50 result at Cytochrome P450 2C19 was “inconclusive”.
Take `COC(=O)c1cc(C(=O)Nc2nc3ccccc3[nH]2)cc([N+](=O)[O-])c1`: the EC50 in data set [3] was 3.94 µM (active); on Streptokinase A, > 150 µM (not active); with Streptococcus it was > 150 µM (not active).
For the compound `C=CC[n+]1c(-c2ccc(C)cc2)csc1Nc1c(C)n(C)n(-c2ccccc2)c1=O`, the EC50 in data set [1] was 4.99 µM (active); in data set [2], > 60 µM (not active).
Turning to `CC(C)(C)c1nc(SCC(=O)Nc2ccc(N3CCOCC3)cc2)c2ccccc2n1`, at Cytochrome P450 3A4, the concentration at half-maximal activity (AC50) is 1 µM (inconclusive).
On the same count and under the same terms, for `COc1ccc(C(=O)N2CCC[C@@]3(CCN(c4ccccc4)C3)C2)cc1` the value was 7.94 µM (inconclusive).
For the compound `CN(c1ccccc1)S(=O)(=O)c1ccc(C(=O)Nc2ccncc2)cc1`, the EC50 is 1.18 µM (active) in data set [1] and > 60 µM (not active) in data set [2].
For `O=S(=O)(c1ccccc1)N1CCC2(CCN(c3ccc(-c4ccccc4)cc3)CC2)CC1`, the AC50 on Cytochrome P450 3A4 was 20 µM (inconclusive).
Turning to `Cc1cc(Cl)ccc1N=C(S)NCCC(c1ccccc1)c1ccccc1`, the results for the EC50 (in [3]; in the data set with Streptococcus) were 5.18 µM (active) and 30.3 µM (active), respectively.
As to `O=c1c(CCc2ccccc2)nc2cnc(Oc3ccccc3)nc2n1C1CC1`, on Cytochrome P450 3A4, the AC50 was 15.8 µM (inconclusive).
For the compound `CCC(c1nnnn1C(C)(C)C)N(Cc1cccs1)Cc1cc2cc(C)c(C)cc2n2nnnc12` (centres undefined), the EC50 in data set [1] is 1.02 µM (active); in [2], > 60 µM (not active).
Take `CC(=O)Nc1c(C)nn(-c2ccc(C)c(C)c2)c1C`: on Cytochrome P450 2C19 (read-out: AC50), the AC50 was 39.8 µM (inconclusive).
For the compound `O=C(c1ccco1)N1CCN(C(=O)c2nn3cccnc3c2Cl)CC1`, the AC50 entry at Cytochrome P450 2C19 is “inconclusive”.
For the compound `CC1(C)CC(O)CC(C)(C)N1CC(O)COCCOc1ccc(Br)cc1` (centres undefined), the AC50 entry on Cytochrome P450 2C19 is recorded as “inconclusive”.
With `CC(C)NC(=O)N(C)C[C@H]1OCc2cnnn2CCCC(=O)N([C@H](C)CO)C[C@H]1C`, the EC50 in data set [4] was > 53 µM (inactive).
`CCCc1nc2ccccc2c(=O)n1NC(=O)c1c(O)c2cccc3c2n(c1=O)CCC3`: the EC50 in [3] was 3.78 µM (active); on Streptokinase A it was > 150 µM (not active); with Streptococcus it was 7.68 µM (active).
For the compound `CCNC(=S)N/N=C/c1cccc(OCc2c(F)cccc2Cl)c1`, the EC50 was 1.15 µM (active) in data set [1] and > 30 µM (not active) in [2].
In the case of `Cc1cccc(CNc2ncnc3ccc(-c4c(C)noc4C)cc23)c1`, at Cytochrome P450 2C9, the AC50 is 1 µM (inconclusive).
Still for that read-out and setting: for `CC[C@@H](CO)Nc1nc(NCc2ccccc2)c2ncn(C(C)C)c2n1` [(S)-ROSCOVITINE] the value was 0.316 µM (inconclusive).
